ChEMBL document CHEMBL1201862, “PubChem BioAssay data set” (2004)
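Values below derive from 48-hour exposures of cells grown in 96-well plates, with endpoints linearly interpolated between the two concentrations bracketing the appropriate inhibition level. Abbreviation: GI50, concentration required for 50% inhibition of growth.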 The source made the active and inactive calls. No stated cut-off is given here; in the data, active = GI50 up to about 1.1 µM and inactive = higher.

What was measured:
Experiment in all cases: growth of human tumour cells (NCI), 48 h
U-251 = system: U-251
OVCAR-4 = system: OVCAR-4
M14 = system: M14
DMS-273 = system: DMS-273
DLD-1 = system: DLD-1
786-0 = system: 786-0
BT-549 = system: BT-549
SF-295 = system: SF-295
HCC 2998 = system: HCC 2998
XF498 = system: XF498
SK-OV-3 = system: SK-OV-3
NCI-H23 = system: NCI-H23
SF-268 = system: SF-268
KM12 = system: KM12
UACC-257 = system: UACC-257
NCI/ADR-RES = system: NCI/ADR-RES
LXFL 529 = system: LXFL 529
A498 = system: A498
RXF 393 = system: RXF 393
IGROV-1 = system: IGROV-1
SF-539 = system: SF-539
UO-31 = system: UO-31
M19-MEL = system: M19-MEL
K562 = system: K562
COLO 205 = system: COLO 205
EKVX = system: EKVX
MDA-N = system: MDA-N
CAKI-1 = system: CAKI-1
CCRF-CEM = system: CCRF-CEM
SN12C = system: SN12C
OVCAR-3 = system: OVCAR-3
NCI-H226 = system: NCI-H226
PC-3 = system: PC-3
A549 = system: A549
Hs-578T = system: Hs-578T
KM-20L2 = system: KM-20L2
ACHN = system: ACHN
HOP-62 = system: HOP-62
T47D = system: T47D
HL-60 = system: HL-60
RPMI-8226 = system: RPMI-8226
Malme-3M = system: Malme-3M
SK-MEL-5 = system: SK-MEL-5
DU-145 = system: DU-145
MCF7 = system: MCF7
MOLT-4 = system: MOLT-4
OVCAR-5 = system: OVCAR-5
SW-620 = system: SW-620
HT-29 = system: HT-29
DMS-114 = system: DMS-114
UACC-62 = system: UACC-62
LOX IMVI = system: LOX IMVI
TK-10 = system: TK-10
SNB-75 = system: SNB-75
SK-MEL-28 = system: SK-MEL-28
HCT-116 = system: HCT-116
NCI-H522 = system: NCI-H522
OVCAR-8 = system: OVCAR-8
SK-MEL-2 = system: SK-MEL-2
MDA-MB-435 = system: MDA-MB-435
NCI-H460 = system: NCI-H460
SR = system: SR
SNB-19 = system: SNB-19
HCT-15 = system: HCT-15
MDA-MB-231 = system: MDA-MB-231
HOP-18 = system: HOP-18
HOP-92 = system: HOP-92

Measured: GI50

O=S(=O)(c1ccccc1)C1CN(Cc2ccccc2)CCN(Cc2ccccc2)C1
inactive: U-251 33 µM | OVCAR-4 9.79 µM | M14 24.2 µM | DMS-273 12.7 µM | DLD-1 12.1 µM | 786-0 > 74 µM | BT-549 80.5 µM | SF-295 73.8 µM | HCC 2998 > 78 µM | XF498 18.8 µM | SK-OV-3 > 71.6 µM | NCI-H23 15.7 µM | SF-268 29.4 µM | KM12 58.3 µM | UACC-257 26.6 µM | NCI/ADR-RES 17.9 µM | LXFL 529 11.3 µM | A498 > 100 µM | RXF 393 10.4 µM | IGROV-1 35.8 µM | SF-539 77.6 µM | UO-31 19.3 µM | M19-MEL 14.4 µM | K562 5.97 µM | COLO 205 30 µM | EKVX 36.7 µM | MDA-N 6.46 µM | CAKI-1 24.4 µM | CCRF-CEM 5.14 µM | SN12C 32.4 µM | OVCAR-3 26.6 µM | NCI-H226 > 53.6 µM | PC-3 8.71 µM | A549 39.7 µM | Hs-578T 37.2 µM | KM-20L2 35.2 µM | ACHN 39.4 µM | HOP-62 > 76.2 µM | T47D 30 µM | HL-60 5.92 µM | RPMI-8226 4.55 µM | Malme-3M 25.5 µM | SK-MEL-5 18.6 µM | DU-145 80.5 µM | MCF7 36.8 µM | MOLT-4 7.24 µM | OVCAR-5 > 100 µM | SW-620 24 µM | HT-29 24.5 µM | DMS-114 10 µM | UACC-62 11.4 µM | LOX IMVI 6.25 µM | TK-10 63.4 µM | SNB-75 61.5 µM | SK-MEL-28 > 71 µM | HCT-116 18.1 µM | NCI-H522 8 µM | OVCAR-8 14.4 µM | SK-MEL-2 36.8 µM | MDA-MB-435 20.9 µM | NCI-H460 26.7 µM | SR 7.76 µM | SNB-19 > 60.4 µM | MDA-MB-231 39.2 µM
25 µM: HCT-15

O=c1c2cc(O)ccc2n2nnc3ccc(NCCNCCO)c1c32
inactive: U-251 1.27 µM | OVCAR-4 5.09 µM | DMS-273 9.18 µM | 786-0 4.86 µM | SF-295 15.2 µM | XF498 1.71 µM | HOP-18 26.9 µM | SK-OV-3 5.08 µM | NCI-H23 11.7 µM | SF-268 1.39 µM | KM12 20.2 µM | LXFL 529 3.2 µM | SF-539 4.56 µM | UO-31 26.9 µM | COLO 205 5.33 µM | EKVX 26.2 µM | CAKI-1 5.68 µM | NCI-H226 2.6 µM | HOP-92 3.49 µM | RPMI-8226 17.1 µM | HT-29 8.77 µM | DMS-114 2.28 µM | LOX IMVI 3.23 µM | HCT-116 4.62 µM | OVCAR-8 3.53 µM | SNB-19 4.09 µM
77.8 µM: HCT-15

O=C1OC2C=CC1C1(CCOC1=O)C2 (stereo not given)
inactive: U-251 > 100 µM | OVCAR-4 > 100 µM | M14 > 100 µM | DMS-273 > 100 µM | DLD-1 > 100 µM | 786-0 > 100 µM | HCC 2998 > 100 µM | XF498 > 100 µM | HOP-18 > 100 µM | NCI-H23 > 100 µM | SF-268 > 100 µM | KM12 > 100 µM | UACC-257 > 100 µM | LXFL 529 > 100 µM | A498 > 100 µM | IGROV-1 48.8 µM | SF-539 > 100 µM | UO-31 > 100 µM | M19-MEL > 100 µM | K562 > 100 µM | COLO 205 > 100 µM | EKVX > 100 µM | CAKI-1 > 100 µM | CCRF-CEM > 100 µM | SN12C > 100 µM | OVCAR-3 > 100 µM | NCI-H226 > 100 µM | A549 > 100 µM | HOP-92 > 100 µM | KM-20L2 > 100 µM | ACHN > 100 µM | HOP-62 > 100 µM | HL-60 > 100 µM | RPMI-8226 > 100 µM | Malme-3M > 100 µM | SK-MEL-5 > 100 µM | MOLT-4 > 100 µM | OVCAR-5 > 100 µM | SW-620 > 100 µM | DMS-114 > 100 µM | UACC-62 28.8 µM | LOX IMVI > 100 µM | TK-10 > 100 µM | SNB-75 46.8 µM | SK-MEL-28 > 100 µM | HCT-116 > 100 µM | NCI-H522 > 100 µM | OVCAR-8 > 100 µM | SK-MEL-2 > 100 µM | NCI-H460 > 100 µM | SR > 100 µM | SNB-19 > 100 µM
> 100 µM: HCT-15
